Source: patent publication US8282688B2, “Laccase mediators and methods of use” (Danisco US Inc., priority 2006, dated 2012)
Where “and” joins values, the source holds several entries; their conditions need not be identical. Identical values can stand only once.

Test system: C. unicolor laccase
Assay: Bleaching of denim swatches with C. unicolor laccase (Example 4)
Type: biochemical
Set-up: key to ΔL Denim swatch Frontside / Δb Denim swatch Frontside / ΔL Denim swatch Backside / Δb Denim swatch Backside / Δa Denim swatch Backside / Δa Denim swatch Frontside: difference between initial and final CIE L*a*b* values; key to ΔE (total color difference) Denim swatch Backside / ΔE (total color difference) Denim swatch Frontside: ΔE = (ΔL²+Δa²+Δb²)^1/2 from CIE L*a*b* before/after bleaching
Details: for ΔE (total color difference) Denim swatch Backside / ΔE (total color difference) Denim swatch Frontside / ΔL Denim swatch Backside / ΔL Denim swatch Frontside / Δa Denim swatch Backside / Δb Denim swatch Backside / Δb Denim swatch Frontside: laccase 20 ppm, pH 6, 50° C., 2 hours
Method: Denim legs (made out of sulfur bottom/indigo dyed denim fabric from Cone Mill, style number 1662P) were pretreated with IndiAge® 2XL at a dose of 1 gram per liter in a 50 lb lab scale tumbling washer. The liquor ratio was 6 to 1 (5 kg substrate in 30 liters of water) and the treatment was performed at 55° C. at pH 4.5 for 1 hour. A warm rinse followed the cellulase treatment, after which the fabric was dried in a tumble dryer. A punch press was used to cut ⅝ inch denim disks from IndiAge® 2XL pretreated denim legs. Each denim disk is pre read with a Chroma Meter CR-200 by Minolta in order to determine the CIE L*a*b* values of both the front and backside of the fabric disk.
One denim disk is placed in each well of two duplicate 12 well micro-titer plates. Each well received C. unicolor laccase (20 uL of 1/20 dilution, approx. 20 ppm), mediator (200, 100, 50 or 20 uL of a 20 mM stock solution in methanol) and 50 mM potassium phosphate buffer, pH 6 for a total volume of 2 mL/well. The mediators were methyl syringate (MS), 4-cyano-2,6-dimethoxyphenol (SN) and 3,4,5-trimethoxyphenol (TMP). The plates were sealed and incubated at 50° C. for 2 hours at 150 rpm in a standard incubator. Following this period, the swatches were removed from the plates and carefully placed on a filter paper in a Buchner funnel and washed with copious amounts of water, followed by drying of the residual water under high vacuum overnight. The swatches were then re-read with the chromometer in order to determine the CIE L*a*b* values of both the front and backside of the disk following bleaching. The total color difference (ΔE) is calculated from the difference between the initial and final CIE L*a*b* values according to the formula ΔE=(ΔL^2+Δa^2+Δb^2)^1/2 The total color differences (ΔE) as a function of mediator concentration are plotted in FIGS. 5 and 6.

In the case of `COc1cc(C#N)cc(OC)c1O` [SN, 4-cyano-2,6-dimethoxyphenol], the “effectiveness as mediator for denim swatch bleaching” value (C. unicolor laccase 20 ppm, 200-2000 uM mediator) is reported as “most effective mediator”, the “ΔE (total color difference) Denim swatch Backside” value (mediator 200 uM) is reported as 10.39 and 10.37 and the “ΔE (total color difference) Denim swatch Frontside” value (mediator 200 uM) is reported as 7.24 and 8.51. For the same molecule, the “ΔL Denim swatch Backside” value (mediator 200 uM) was 8.38 and 8.67, the “ΔL Denim swatch Frontside” value (mediator 200 uM) was 6.63 and 7.98 and the “Δa Denim swatch Backside” value (mediator 200 uM) was 0.54 and 0.38. For the same molecule, the “Δb Denim swatch Backside” value (mediator 200 uM) was 6.12 and 5.67, the “Δb Denim swatch Frontside” value (mediator 200 uM) was 2.57 and 2.67 and the “ΔE (total color difference) Denim swatch Backside” value (mediator 500 uM) was 13.43 and 14.11. The “ΔE (total color difference) Denim swatch Frontside” value (mediator 500 uM) was 15.59 and 13.17, the “ΔL Denim swatch Backside” value (mediator 500 uM) was 10.71 and 11.6 and the “ΔL Denim swatch Frontside” value (mediator 500 uM) was 14.46 and 12.06. For the same molecule, the “Δa Denim swatch Backside” value (mediator 500 uM) was 0.35 and 0.38, the “Δb Denim swatch Backside” value (mediator 500 uM) was 8.1 and 8.03 and the “Δb Denim swatch Frontside” value (mediator 500 uM) was 5.51 and 4.92. For the same molecule, the “ΔE (total color difference) Denim swatch Backside” value (mediator 1000 uM) was 13.98 and 15.19, the “ΔE (total color difference) Denim swatch Frontside” value (mediator 1000 uM) was 14.75 and 14.92 and the “ΔL Denim swatch Backside” value (mediator 1000 uM) was 11.45 and 12.1. For the same molecule, the “ΔL Denim swatch Frontside” value (mediator 1000 uM) was 13.54 and 13.84, the “Δa Denim swatch Backside” value (mediator 1000 uM) was 0.07 and 0.14 and the “Δb Denim swatch Backside” value (mediator 1000 uM) was 8.02 and 9.19. For the same molecule, the “Δb Denim swatch Frontside” value (mediator 1000 uM) was 5.47 and 4.98, the “ΔE (total color difference) Denim swatch Backside” value (mediator 2000 uM) was 15.31 and 16.59 and the “ΔE (total color difference) Denim swatch Frontside” value (mediator 2000 uM) was 16.03 and 14.48. For the same molecule, the “ΔL Denim swatch Backside” value (mediator 2000 uM) was 12.34 and 13.58, the “ΔL Denim swatch Frontside” value (mediator 2000 uM) was 14.79 and 13.23 and the “Δb Denim swatch Backside” value (mediator 2000 uM) was 9.06 and 9.52. The “Δb Denim swatch Frontside” value (mediator 2000 uM) was 5.8 and 5.58.
